# Measured values taken from US11285144B2, “Use of CDK8 inhibitors to treat diseases of inflammation and autoimmunity” (THE BROAD INSTITUTE, INC., priority 2016, dated 2022).
# “Also recorded” adds a separate entry of the source.
# Legend:
# Cyclin C/CDK8 [1] = molecular target: T1, Cyclin C/CDK8 (Homo sapiens, UniProt P49336); assay: Binding to Cyclin C/CDK8 complex
# From the text: (§1) Given that the pyridine core of BRD6989 is a common kinase-binding motif (Xing et al., J Comput Aided Mol Des 28:13-23, 2014), its activity against 414 kinases was profiled using a series of binding and activity assays. […] Binding of BRD6989 to CDK8, and its paralog CDK19, was confirmed using an orthogonal kinase-profiling format.
# [2] = test system: mouse bone marrow-derived macrophages (BMDMs); assay: IL-10 production in BMDMs activated with Zymosan A or R848; format: cell-based
# From the text: (§2) The pyridinyl tetrahydroquinoline BRD6989 (10) emerged as a prioritized hit in the screen (FIG. 2a and Table 2). […] Thus, BRD6989 enhances IL-10 production in activated human and murine macrophages and dendritic cells by a mechanism that appears most pronounced following stimulation of toll-like receptors-7 (TLR7) and TLR8 by R848.
# R848-stimulated BMDCs [3] = assay: Cytokine production by R848-stimulated BMDCs; format: cell-based, mouse
# From the text: as §2
# (§3) Pre-treatment with these CDK8/19 inhibitors recapitulated the IL-10 potentiating activity of BRD6989 in both BMDCs (FIG. 9b) along with human DCs derived from two independent donors in the context of R848 stimulation (FIGS. 9c and 10a).
# [4] = test system: Zymosan A-stimulated BMDCs; assay: Viability of zymosan A-stimulated BMDCs; format: cell-based, mouse
# From the text: as §2
# R848-stimulated BMDCs [5] = assay: IL-10 mRNA levels in BMDCs following R848 stimulation; format: cell-based, mouse; conditions: pre-treatment, then R848 stimulation
# Procedure: FIG. 5—Cellular activities of the IL-10 hit BRD6989. […] (d) Effect of BRD6989 on IL-10 production in human DCs stimulated with R848 (each point corresponds to mean±S.D.; n=3 biological replicates from 1 independent experiment using cells derived from 1 donor). (e) Chemical structure of the pan-SIK inhibitor HG-9-91-01. (f) Effect of pre-treating BMDCs with HG-9-91-01 (0.5 μM) or BRD6989 (5 μM) on IL-10 mRNA levels following stimulation with R848 (each point corresponds to mean±S.D.; n=4 biological replicates from 1 independent experiment; *, P<0.05; ***, P<0.001 using unpaired, two-tailed Student's t test). Data from all panels is representative of at least 2 independent experiments.
# Based on its ability to selectively potentiate IL-10 production by a mechanism that appears temporally distinct from CREB activation, BRD6989 was prioritized for MOA studies.
# Cyclin C/CDK8 [6] = molecular target: T1, Cyclin C/CDK8; assay: Kinase activity of recombinant Cyclin C/CDK8; format: biochemical; conditions: recombinant complex
# From the text: (§4) Together, these kinase profiling, binding assay, enzyme inhibition and cell-based data identify the Mediator-associated kinases CDK8, and to a lesser degree CDK19, as molecular targets of BRD6989.
# [7] = test system: human, monocyte-derived DCs; assay: IL-10 production in human monocyte-derived DCs stimulated with R848; format: cell-based
# From the text: as §2, §3
# [8] = test system: Zymosan A-stimulated BMDCs; assay: Cytokine production by Zymosan A-stimulated BMDCs; format: cell-based, mouse
# From the text: Towards the goal of identifying new mechanisms of IL-10 regulation, 59,346 small molecules were screened for the ability to enhance IL-10 production by activated bone marrow-derived dendritic cells (BMDCs) using a high-throughput assay developed previously (Sundberg et al., PNAS 111:12468-12473, 2014). Compounds were derived from both commercial collections and structurally and skeletally diverse libraries prepared by diversity-oriented synthesis (DOS). More than 60 hit compounds were identified that reproducibly enhance IL-10 production in a concentration-dependent manner (Table 1). Three distinct chemotypes were prioritized for follow-up based on potency and an initial analysis of structure-activity relationship (SAR) with respect to core scaffold, stereochemistry and side chains (FIG. 2a).
# as §2
# [9] = test system: Cyclin B/CDK1, Cyclin A/CDK2, p35/CDK5, Cyclin H/CDK7, Cyclin T/CDK9; assay: Activity of other CDKs; format: biochemical; conditions: CDKs involved in cell cycle regulation
# From the text: (a) Binding of the indicated concentrations of BRD6989 to CDK8/Cyclin C complexes (each point corresponds to mean±S.D.; n=3 biological replicates from 1 independent experiment). (b-f) Effect of the indicated concentrations of BRD6989 on the activity of (b) Cyclin B/CDK1, (c) Cyclin A/CDK2, (d) p35/CDK5, (e) Cyclin H/CDK7, and (f) Cyclin T/CDK9 (each point corresponds to mean±S.D.; n=3 biological replicates from 1 independent experiment).
# as §4
# BMDMs [10] = assay: TF-Seq pathway reporter assay in BMDMs; format: cell-based, mouse
# Procedure: To identify CDK8-responsive signaling pathways, an integrative genomics approach termed transcription factor sequencing (TF-Seq) was applied, in which consensus transcription factor binding sites drive expression of 58 reporter constructs bearing unique sequence tags (O'Connell et al., Cell Syst 2:323-34, 2016).
# Given that c-Jun's ability to activate transcription is tightly regulated by phosphorylation, it was determined whether CDK8 inhibition affects c-Jun phosphorylation in activated BMDCs.
# 414 kinases = assay: Kinase profiling by binding and activity assays
# From the text: as §1
# BMDMs [11] = assay: Transcriptional profiling of stimulated BMDMs; format: cell-based, mouse
# Procedure: To define systematically the role of CDK8 during innate immune activation, the transcriptional responses elicited by dCA or BRD6989 following stimulation of BMDMs were profiled with a panel of 10 microbial ligands or Sendai virus for time points from 15 min to 4 hours. BMDMs were chosen for these experiments because, like human and mouse DCs, they upregulate IL-10 in response to CDK8 inhibition (FIG. 5c), and they have been previously studied using the multiplexed pathway reporter assay described below (O'Connell, et al., Cell Syst 2:323-34, 2016). In this experiment, the transcriptional responses elicited by BRD6989 and dCA were highly correlated (FIG. 12a), again supporting CDK8 as a principle cellular target of BRD6989.
# STAT1 = STAT1 phosphorylation in IFNγ-stimulated BMDCs; format: cell-based, mouse; conditions: IFNγ-induced
# From the text: as §4
# T1 sequence (P49336 whole entry, species assumed): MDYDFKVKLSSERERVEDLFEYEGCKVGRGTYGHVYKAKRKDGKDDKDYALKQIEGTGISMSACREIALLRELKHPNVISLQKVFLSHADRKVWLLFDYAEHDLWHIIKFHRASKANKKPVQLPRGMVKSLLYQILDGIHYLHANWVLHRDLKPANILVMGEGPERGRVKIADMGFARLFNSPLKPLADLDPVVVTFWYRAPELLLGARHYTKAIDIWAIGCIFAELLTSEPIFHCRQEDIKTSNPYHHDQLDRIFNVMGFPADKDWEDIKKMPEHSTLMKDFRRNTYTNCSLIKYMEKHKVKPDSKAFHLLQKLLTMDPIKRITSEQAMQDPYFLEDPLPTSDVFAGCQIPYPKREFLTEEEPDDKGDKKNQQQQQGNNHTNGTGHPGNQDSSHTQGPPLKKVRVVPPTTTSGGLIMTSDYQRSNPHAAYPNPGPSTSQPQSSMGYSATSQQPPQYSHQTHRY
# T1 sequence (P24863 whole entry partner, species assumed): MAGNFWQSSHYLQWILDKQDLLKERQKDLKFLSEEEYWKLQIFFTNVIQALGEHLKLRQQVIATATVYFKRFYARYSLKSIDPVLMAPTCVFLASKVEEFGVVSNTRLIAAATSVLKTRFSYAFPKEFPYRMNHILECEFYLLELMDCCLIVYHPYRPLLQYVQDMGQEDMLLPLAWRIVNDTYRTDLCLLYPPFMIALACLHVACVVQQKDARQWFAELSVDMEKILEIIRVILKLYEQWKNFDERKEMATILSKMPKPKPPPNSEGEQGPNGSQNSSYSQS
smiles,measurement,setting,value
CC1CCc2nc(N)c(C#N)c(-c3cccnc3)c2C1 (stereo not shown) [BRD6989],IC50,Cyclin C/CDK8 [1],~200 nM
same,IL-10 production,[2],increased IL-10 production; also recorded: up-regulates IL-10 production
same,IL-10 production,R848-stimulated BMDCs [3],greater fold-increase in IL-10 production
same,cell viability,[4],only modestly reducing cell viability; also recorded: does not significantly reduce the viability
same,IL-10 mRNA levels,R848-stimulated BMDCs [5],sustained increase beginning at 4 hours and extending to 24 hours
same,IC50,Cyclin C/CDK8 [6],~500 nM
same,IL-10 production,[7],up-regulated IL-10
same,EC50,"[8]; Mus musculus, BMDC, pre-treatment 48 hr, Zymosan A 18 hr, read-out: IL-10 production EC50",~1000 nM
same,production of IL-12p40,[8]; Zymosan A-induced,largely unchanged
same,production of TNFα,[8]; Zymosan A-induced,largely unchanged
same,release of IL-6,[8]; Zymosan A-induced,suppressed
same,production of IL-1β,[8]; Zymosan A-stimulated / activated BMDCs,largely unchanged
same,IL-1β production,[8]; stimulation with R848 or Zymosan A,minimally elevates IL-1β production
same,inhibition of several other CDKs,[9],not the activity of several CDKs involved in cell cycle regulation; also recorded: does not inhibit
same,STAT1:STAT2 reporter activity,BMDMs [10]; 2 hours after stimulation of BMDMs,suppressed induction of STAT1:STAT2 activity
same,NF-κB activation,BMDMs [10]; all stimuli tested,suppressed NF-κB activation to a varying degree
same,secondary targets in kinase profiling,414 kinases; both kinase profiling experiments,"phosphatidylinositol-4,5-bisphosphate 3-kinases C2A (PI3KC2A) and PI3KCG as secondary targets"
same,kinase selectivity,414 kinases; kinase profiling,remarkable selectivity
same,"expression of interferon-inducible genes Ifit2, Cxcl10 and Rsad2",BMDMs [11],"reduced expression of the interferon-inducible genes Ifit2, Cxcl10 and Rsad2"
same,JAK-mediated phosphorylation of STAT1 Y701,STAT1,did not affect
same,phosphorylation of STAT1 at S727,STAT1,inhibited; also recorded: suppresses phosphorylation
same,phosphorylation of STAT1 at S727,STAT1; listed as BRD-6989,Dose dependent inhibition of CDK8 dependent
